# Measured values published in patent US20210198318A1, “Methods and Compositions for Treating Diseases and Conditions Associated with Gonadotropin Releasing Hormone Receptor” (The Board of Regents of the University of Oklahoma, priority 2018, published 2021).
# Non-standard residues stand in square brackets, D forms with d. Residues, ends and D or L forms follow the SMILES beside them. dPhe(4-Cl) = N[C@H](Cc1ccc(Cl)cc1)C(=O)O; d2Nal = N[C@H](Cc1ccc2ccccc2c1)C(=O)O; dCit = NC(=O)NCCC[C@@H](N)C(=O)O; d3Pal = N[C@H](Cc1cccnc1)C(=O)O
# Key:
# GnRHR = molecular target: T1, GnRHR (Homo sapiens, UniProt P30968); assay: GnRHR-transfected Chem-1 cell-based calcium flux assay; settings: for dosage at which the assay responds (relative Ca^2+ induced Fluo-8 NW fluorescence, % of maximal fluorescence): GnRHR-transfected cells, dosage response curve, n=4
# T1 construct: host or cells: Chem-1 cells
# T1 sequence (P30968 1-328): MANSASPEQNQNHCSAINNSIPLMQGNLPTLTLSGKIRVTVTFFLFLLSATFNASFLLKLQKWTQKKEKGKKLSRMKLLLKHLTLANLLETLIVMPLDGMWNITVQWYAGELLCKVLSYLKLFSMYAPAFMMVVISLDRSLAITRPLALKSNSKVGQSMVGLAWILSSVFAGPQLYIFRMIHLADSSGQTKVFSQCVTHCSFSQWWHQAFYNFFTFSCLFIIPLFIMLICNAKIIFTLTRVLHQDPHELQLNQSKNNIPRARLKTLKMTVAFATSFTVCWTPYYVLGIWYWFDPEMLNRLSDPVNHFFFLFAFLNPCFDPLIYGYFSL
# Description: Cell-based GnRHR-AAb Activity Assays: Activity of GnRHR AAb in IgG purified from sera of subjects with PCOS and controls were analyzed with a GnRHR-transfected Chem-1 cell-based calcium flux assay (Eurofins Scientific, USA). Briefly, Chem-1 cells were dispensed into 96-well plates and incubated 24 h, after which assay plates were washed sufficiently with Hank's Balanced Salt Solution (HBSS) supplemented with 20 mM HEPES, 2.5 mM Probenecid at pH 7.4 to remove all trace of Media. Component. Serum-derived IgG (0.1 mg/mL) was added in the presence and absence of the non-selective GnRHR blockade. Samples were tested in triplicate. FLUO-8®, AM Ca^2+ dye (Cat No: 21080, AAT Bioquest, Inc., Sunnyvale, Calif.) was prepared by dissolving 1 mg of Fluo-8 NW in […] and applied to the assay plate (Ca^2+ dye at 10 μL/10 mL is sufficient for loading one plate). Excitation wave length was set at 470-495 nm and emission wave length at 515-565 nm for Ca^2+ dyes. Maximal fluorescence signal was obtained by HIDEX Sense reader.
# Methods Summary: Infertile PCOS subjects based on Rotterdam criteria and infertile ovulatory controls seen at an academic fertility clinic 2012-2016 were included in the study if they had stored serum prior to beginning treatment. Serum was screened by ELISA for AAbs to GnRHR using a synthetic 28-mer peptide from the ECL2 and ECL 1 of human GnRHR as coating antigen. Optical density (OD) values were read at 405 nm at 60 minutes. Activity of GnRHR AAb in sera and in IgG purified from sera of 4 subjects with PCOS and 4 controls was analyzed with a GnRHR-transfected Chem-1 cell-based calcium flux assay. AAb-specific effect was tested by GnRHR blockade. Group data are presented as mean±SD or percent. Groups were compared using Student t or Pearson chi-squared tests. An ROC curve was used to assess OD as a diagnostic test for PCOS.
# Abs present in the sera = assay: Mimotope PIN ELISA with sequential GnRHR-ECL2 synthetic peptides and PCOS serum; format: binding, human; settings: sera 1:200; 8-mer pins offset by two amino acids
# Description: The peaks represent sites of increased binding by Abs present in the sera. The amino acid sequence for each pin is shown at the bottom. Representative PCOS with 2 dominant peaks. Each color bar represents the time of O.D. reading after addition of chromagen (30, 60, and 90 min).
# A Mimotope PIN ELISA assay was performed on 11 PCOS subjects and 5 control subjects using sequential GnRHR-ECL2 synthetic peptides, each 8 amino acid residues in length, and each one different from the preceding peptide by addition of the next two C-terminal residues and removal of the last 2 N-terminal residues (see Table 1). The specific peptides were biochemically bonded to the tip of the pin that is attached to the 96 well plate cover in such a fashion that the peptides were immersed in the buffer/sera (1:200) mixture in the well. After incubation, the pins and wells were washed thoroughly, and the well mixture was then replaced by the anti-human-2nd AB (1:10,000) and incubated and washed again; the colorimetric agent was then added. The wells were sequentially counted at 10 min intervals, and values were compared for analysis of O.D. for each pin. The values and pin sequences are shown with time of reading in color code.
Compound,"dosage at which the assay responds (relative Ca^2+ induced Fluo-8 NW fluorescence, % of maximal fluorescence) (GnRHR)",site of increased binding by Abs in PCOS sera (minipin ELISA peak) (Abs present in the sera),other results
CC(=O)N[C@H](Cc1ccc2ccccc2c1)C(=O)N[C@H](Cc1ccc(Cl)cc1)C(=O)N[C@H](Cc1cccnc1)C(=O)N[C@@H](CO)C(=O)N[C@@H](Cc1ccc(O)cc1)C(=O)N[C@H](CCCNC(N)=O)C(=O)N[C@@H](CC(C)C)C(=O)N[C@@H](CCCNC(=N)N)C(=O)N1CCC[C@H]1C(=O)N[C@H](C)C(N)=O [cetrorelix] (Ac-[d2Nal][dPhe(4-Cl)][d3Pal]SY[dCit]LRP[dA]-NH2),,,"effect on GnRHR activity (relative fluorescence, % of maximum fluorescence) of PCOS subjects (GnRHR; cetrorelix 10^−5M, 2-hour exposure, samples from PCOS subjects): suppressed the relative fluorescence expressed as % of maximum fluorescence to baseline; effect on GnRHR activity (relative fluorescence, % of maximum fluorescence) of control subjects (GnRHR; cetrorelix 10^−5M, 2-hour exposure, samples from control subjects): not significantly changed"
VTHCSFSQ (listed as Homo sapiens) [SEQ ID NO:6],,Overlapping Peak 2,
FSQCVTHC (listed as Homo sapiens) [SEQ ID NO:8],,Overlapping Peak 1,

# The next lines start with results.
"dosage at which the assay responds (relative Ca^2+ induced Fluo-8 NW fluorescence, % of maximal fluorescence) (GnRHR)",Compound,site of increased binding by Abs in PCOS sera (minipin ELISA peak) (Abs present in the sera),other results
10^−8 M,CCNC(=O)[C@@H]1CCCN1C(=O)[C@H](CCCNC(=N)N)NC(=O)[C@H](CC(C)C)NC(=O)[C@@H](CC(C)C)NC(=O)[C@H](Cc1ccc(O)cc1)NC(=O)[C@H](CO)NC(=O)[C@H](Cc1c[nH]c2ccccc12)NC(=O)[C@H](Cc1c[nH]cn1)NC(=O)[C@@H]1CCC(=O)N1 [leuprolide],,"total GnRHR activity of leuprolide in the presence of IgG purified from PCOS subjects versus buffer+leuprolide (GnRHR; GnRHR transfected cells, n=4, p<0.01): increased the total activity at least in an additive fashion"
10^−9 M,human Leutenizing Hormone Releasing Hormone [hLHRH],,
